Structures are written as SMILES.

The subject of this experiment is hind leg scratching behaviour induced in rats by the administration of a known pruritogenic agent. The following applies: rats challenged s.c. with 5-methoxytryptamine hydrochloride (4 mg/3 mL/kg); test compound by subcutaneous injection in aqueous micelle formulation; scratching score totalled after 25 minutes vs control group.

Protocol: The compounds of the invention are evaluated for their activity as antipruritic agents by measuring their ability to inhibit the hind leg scratching behaviour induced in rats by the administration of a known pruritogenic agent. […] The test is performed as follows:
Male Wistar rats (approximately 150 g body weight) are challenged with a pruritogen by subcutaneous injection of 5-methoxytryptamine hydrochloride (4 mg/3 mL/kg) dissolved in physiological saline into the scruff of the neck. At this dose a constant and quantifiable hindleg scratching response lasting up to 90 minutes is obtained.
The test compound is administered to the test animals by subcutaneous injection in an aqueous micelle formulation. The test compound is prepared in the following manner. […] The compounds can be administered pre- or post-challenge or may be administered at the same time as the pruritogenic challenge.
After the pruritogen challenge has been administered, hindleg scratching is scored for each animal by recording the presence or absence of scratching during each 30 second interval as 1 or 0 scored respectively. The score for each animal is totalled after 25 minutes (maximum score 50).

As to `CCOCCN1CC[C@@](C)(c2cccc(O)c2)[C@H](C)C1` (racemic) [Example 5], the anti-pruritic activity entry is “display anti-pruritic activity”.

These data come from US6518282B1, “4-Arylpiperidine derivatives for the treatment of pruritus” (Pfizer Inc., priority 1999, dated 2003).
